In patent US20240391904A1, “DIHYDROPYRIMIDINE BASED COMPOUND, PREPARATION METHOD THEREFOR AND USE OF THEREOF” (CHENGDU SHIBEIKANG BIOMEDICAL TECHNOLOGY CO., LTD., priority 2021, published 2024):
Marks after values point to notes of the source that are not given here.

Columns and labels:
[1] = system: KM mice; test: Mouse cough test (ammonia-induced coughing); type: in vivo; settings: for Number of Coughs (time): mice; for reduction in the number of coughs at 3 mg/kg: compared with model group; for duration of the cough suppression action: 30 to 120 min after administration
Excerpt: Compounds of Example 1-24 (synthesized in the inventor's laboratory), positive control drug (gefapixant, batch No: 01030-210326-2-1, purchased from Holder Pharmaceuticals), the compound of Comparative Example 1 (synthesized in the inventor's laboratory).
Healthy adult KM mice, half of them are male and half of them are female, 6 per group, weighing about 28-30 g.
Most of the animal coughing models currently reported in the literatures use mechanical, chemical and electrical stimulations to stimulate the nerves and receptors of the animals to trigger coughing. According to the characteristics of the candidate compounds and the existing similar target compounds for reference, the method of concentrated ammonia induction was initially chosen to establish the cough modeling test in mice.
Preparation of 50% ammonia solution: 2.5 ml of ammonia was dissolved in […] of a 0.9% sodium chloride solution for injection and mixed evenly.
Preparation of a solution of the compound of Comparative Example 1: 9 mg of the compound of Comparative Example 1 was weighed and dissolved in 3 ml of a 0.5% CMC-Na solution, and mixed evenly to prepare a 3 mg/ml solution.
Preparation of a solution of the example compounds: 9 mg of the example compound was weighed and dissolved in 3 ml of a 0.5% CMC-Na solution, and mixed evenly to prepare a 3 mg/ml solution.
Grouping: a positive control group, a Comparative Example 1 group, Example 1 group-Example 24 group, and a model group were set up. Six KM mice were taken from each group and administered by gavage; here, the Comparative Example 1 group was given the compound of Comparative Example 1, the positive control group was given the positive control drug (gefapixant, commercially purchased), the Example groups were given the compounds prepared in the corresponding Examples, with each group given one of three dosages: 30 mg/kg, […], and 3 mg/kg; and the model group was given the same volume of 0.5% CMC-Na solution.
30 min, 60 min or 120 min after administration, the mice were placed in a 500 ml beaker with a cotton ball (weight 100±5 mg) containing 0.3 ml of 50% ammonia.
(1) Judgment criteria of coughing: coughing was manifest in contraction of abdominal muscles or chest contraction, with mouth wide opening and a coughing sound.
(2) The number of coughs (times) within 3 min was recorded with a stopwatch, and the data were statistically analyzed by software, with the data in each group shown in mean±standard deviation. A one-way analysis of variance among the groups was conducted, and P<0.05 was considered a difference having a statistical significance.

[2] = target: T1, human P2X3 receptor (Homo sapiens, UniProt P56373); test: In vitro bioactivity evaluation: FLIPR antagonist mode, HEK 293 cells stably transfected with human P2X3 receptor, BZATP agonist
T1 sequence (P56373 1-397): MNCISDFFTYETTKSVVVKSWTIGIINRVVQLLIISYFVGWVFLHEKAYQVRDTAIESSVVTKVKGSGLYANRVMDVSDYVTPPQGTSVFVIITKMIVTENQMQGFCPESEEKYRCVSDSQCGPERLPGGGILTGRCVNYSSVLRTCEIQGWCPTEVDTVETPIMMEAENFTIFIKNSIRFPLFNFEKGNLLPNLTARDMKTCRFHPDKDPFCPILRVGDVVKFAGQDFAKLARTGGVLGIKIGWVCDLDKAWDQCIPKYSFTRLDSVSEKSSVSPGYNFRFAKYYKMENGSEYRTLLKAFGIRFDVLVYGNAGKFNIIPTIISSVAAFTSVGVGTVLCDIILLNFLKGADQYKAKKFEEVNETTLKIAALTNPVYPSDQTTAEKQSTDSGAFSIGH
Procedure: Cell culture medium: DMEM high glucose; 10% FBS; 1% PenStrep.
The Petri dish was placed in an incubator for 1-3 minutes or until the cells were digested, 3 mL of a complete medium was then added to terminate the digestion, and the cell density was determined by a cell counter. • 2) After centrifugation at 1000 rpm/min for 5 min, the cells were resuspended in a growth medium and the volume of the suspension was adjusted to reach a cell density of 4×10^5 cells/mL (1×10^4 cells/25 μL). • 3) 10 μL of 5× Matrigel was added into a black microplate, and the microplate was placed in an incubator for 15 min. The microplate was removed and invertedly centrifuged at 300 g/min for 30 s to remove the 5× Matrigel.

[3] = 30 mg/kg, 30 min after administration
[4] = 30 mg/kg by gavage, 30 min after administration, coughs within 3 min, ammonia-induced
[5] = 3 mg/kg by gavage, 60 min after administration, coughs within 3 min
[6] = 10 mg/kg by gavage, 60 min after administration, coughs within 3 min
[7] = 30 mg/kg by gavage, 60 min after administration, coughs within 3 min (Table 5)
[8] = 30 mg/kg by gavage, 60 min after administration, coughs within 3 min (Table 6)
[9] = 30 mg/kg by gavage, 120 min after administration, coughs within 3 min

IC50 [2] [nM] | SMILES | cough suppressing effect compared with the positive compound [1, 3] | Number of Coughs (time) [1, 4] | also measured
– | C[C@@H](Cn1c(=O)cc(Nc2ccc(Oc3ccc(OC(F)(F)F)cn3)cc2)n(Cc2ccc(Cl)cc2)c1=O)C(=O)NS(C)(=O)=O [Compound 19, (S)-3-(3-(4-chlorobenzyl)-2,6-dioxo-4-(4-(5-((5-trifluoromethoxy)pyridin-2-yl)oxyphenyl)amino)-3,6-dihydropyrimidin-1(2H)-yl)-2-methyl-N-(sulfonyl)propionamide group] | stronger than that of the positive compound | 17.62** time | –
– | C[C@@H](Cn1c(=O)cc(Nc2ccc(Oc3cnccn3)cc2)n(Cc2ccc(Cl)cc2)c1=O)C(=O)O [Compound 2] | – | 27.67* time | –
– | CC(C)(Cn1c(=O)cc(Nc2ccc(Oc3cnccn3)cc2)n(Cc2ccc(Cl)cc2)c1=O)C(=O)O [Compound 5] | – | 33.67 time | –
< 10 | C[C@@H](Cn1c(=O)cc(Nc2ccc(Oc3ccccn3)cc2)n(Cc2ccc(Cl)cc2)c1=O)C(=O)O [Compound 7] | stronger than that of the positive compound | 15.20** time | reduction in the number of coughs at 3 mg/kg ([1]; 60 min after administration): statistically significant (P<0.01) reduction in the number of coughs; cough suppressing efficacy at 10 mg/kg ([1]; 60 min after administration): improved cough suppressing efficacy than the positive control drug; Number of Coughs (time) [1, 5]: 23.34** time; Number of Coughs (time) [1, 6]: 20.83**^Δ time; Number of Coughs (time) [1, 7]: 15.00** time; Number of Coughs (time) [1, 8]: 15.00** time; Number of Coughs (time) [1, 9]: 38.13 time
10.1 to 50 | COC(=O)C1(Cn2c(=O)cc(Nc3ccc(Oc4ccccn4)cc3)n(Cc3ccc(Cl)cc3)c2=O)CC1 [Compound 14] | – | 32.17 time | –
10.1 to 50 | COC(=O)[C@@H](C)Cn1c(=O)cc(Nc2ccc(Oc3ccccn3)cc2)n(Cc2ccc(Cl)cc2)c1=O [Compound 8] | – | 25.00* time | Number of Coughs (time) [1, 7]: 27.33* time
50.1 to 100 | C[C@@H](Cn1c(=O)cc(Nc2ccc(Oc3ccccc3)cc2)n(Cc2ccc(Cl)cc2)c1=O)C(=O)NS(C)(=O)=O [Compound 23] | – | 34.67 time | –
– | C[C@@H](Cn1c(=O)cc(Nc2ccc(Oc3ccccn3)cc2)n(Cc2ccc(C(F)(F)F)cc2)c1=O)C(=O)NS(C)(=O)=O [Compound 18] | – | 20.57** time | –
10.1 to 50 | CC(C)(Cn1c(=O)cc(Nc2ccc(Oc3cnccn3)cc2)n(Cc2ccc(Cl)cc2)c1=O)C(=O)NS(C)(=O)=O [Compound 6] | stronger than that of the positive compound | 17.81** time | –
10.1 to 50 | C[C@@H](Cn1c(=O)cc(Nc2ccc(Oc3ncccc3F)cc2)n(Cc2ccc(Cl)cc2)c1=O)C(=O)O [Comparative Example 1, reference compound] | – | 25.61* time | cough suppressing effect at 120 min ([1]; 30 mg/kg, 120 min after administration): did not have a significant cough suppressing effect at 120 min; Number of Coughs (time) [1, 8]: 24.12** time; Number of Coughs (time) [1, 9]: 44.17 time
10.1 to 50 | C[C@@H](Cn1c(=O)cc(Nc2ccc(Oc3cnccn3)cc2)n(Cc2ccc(Cl)cc2)c1=O)C(=O)NS(C)(=O)=O [Compound 3] | stronger than that of the positive compound | 16.21** time | reduction in the number of coughs at 3 mg/kg ([1]; 60 min after administration): statistically significant (P<0.01) reduction in the number of coughs; cough suppressing efficacy at 10 mg/kg ([1]; 60 min after administration): improved cough suppressing efficacy than the positive control drug; duration of the cough suppression action ([1]; 30 mg/kg): significantly prolonged compared with that of the compound of Comparative Example 1; Number of Coughs (time) [1, 5]: 21.14** time; Number of Coughs (time) [1, 6]: 19.83**^Δ time; Number of Coughs (time) [1, 7]: 16.02** time; Number of Coughs (time) [1, 8]: 16.02** time; Number of Coughs (time) [1, 9]: 15.13**^Δ time
10.1 to 50 | O=C(O)C1(Cn2c(=O)cc(Nc3ccc(Oc4ccccn4)cc3)n(Cc3ccc(Cl)cc3)c2=O)CC1 [Compound 13] | – | 25.60 time | –
< 10 | CC(C)(Cn1c(=O)cc(Nc2ccc(Oc3ccccn3)cc2)n(Cc2ccc(Cl)cc2)c1=O)C(=O)O [Compound 10] | stronger than that of the positive compound | 17.20** time | duration of the cough suppression action ([1]; 30 mg/kg): short duration of action; cough suppressing effect at 60 min ([1]; 30 mg/kg, 60 min after administration): no cough suppressing effect at 60 min; Number of Coughs (time) [1, 7]: 40.17 time
10.1 to 50 | COC(=O)C(C)(C)Cn1c(=O)cc(Nc2ccc(Oc3ccccn3)cc2)n(Cc2ccc(Cl)cc2)c1=O [Compound 11] | – | 31.00 time | –
< 10 | COC(=O)C(C)(C)Cn1c(=O)cc(Nc2ccc(Oc3cnccn3)cc2)n(Cc2ccc(Cl)cc2)c1=O [Compound 4] | stronger than that of the positive compound | 15.61** time | –
50.1 to 100 | C[C@@H](Cn1c(=O)cc(Nc2ccc(Oc3ncccn3)cc2)n(Cc2ccc(Cl)cc2)c1=O)C(=O)NS(C)(=O)=O [Compound 22] | – | 35.61 time | –
– | C[C@@H](Cn1c(=O)cc(Nc2ccc(Oc3ccc(Cl)cn3)cc2)n(Cc2ccc(Cl)cc2)c1=O)C(=O)NS(C)(=O)=O [Compound 21] | – | 18.83** time | –
10.1 to 50 | C[C@@H](Cn1c(=O)cc(Nc2ccc(Oc3ccc(OC(F)F)cn3)cc2)n(Cc2ccc(Cl)cc2)c1=O)C(=O)NS(C)(=O)=O [Compound 20, (S)-3-(3-(4-chlorobenzyl)-2,6-dioxo-4-(4-(5-((5-difluoromethoxy)pyridin-2-yl)oxyphenyl)amino)-3,6-dihydropyrimidin-1(2H)-yl)-2-methyl-N-(sulfonyl)propionamide group] | stronger than that of the positive compound | 15.17** time | –
